Reference: US9683014B2, “Dipeptide mimetics of NGF and BDNF neurotrophins” (UCHREZHDENIE ROSSIISKOI AKADEMII MEDITSYNSKIKH NAUK …, priority 2009, dated 2017)
Read-outs that look alike come from different tables or passages of the source. Marks after values point to notes of the source that are not given here.

Experiments:
[1] = system: Wistar rats; settings: 1 mg/kg i.p. x7
Experimental: The experiments were carried out on male Wistar rats weighing 280-400 g. Animals were anesthetized and scalped followed by being placed in the stereotaxis device. A skewed incision was made in the skull 1 mm wide: the start point for incision was at the level of bregma (AP=0.0) and 2 mm lateral of it (L=±2); the end point for incision was 2 mm caudal of bregma and 1 mm lateral of it (AP=2.0, L=±1). Following the sawing of the skull bone, the dura mater was incised carefully in the sawcut area. A sterile curved needle was inserted into the incision to a depth of 6.2 mm from the bone surface (DV=−6.2). By the simultaneous use of two screws in the stereotaxis device, the needle was moved slowly almost to the end point of the skewed incision. Then the needle was lifted slowly from the incision. The procedure was repeated twice on each hemisphere. Sham operation was similar to the transection procedure except that the needle was inserted to a depth of 3 mm from the bone surface (DV=−3.0). The first injection of the test compound (1 mg/kg i.p.) in the treatment group or of distilled water in the control group was made 2 hours after the transection. Further injections were made every 48 hours. In the course of the experiment each animal received 7 injections of the test compound.
To detect behavioral abnormalities induced by the transection of the septo-hippocampal pathway, the open-field test was used. The choice of this test was based on the following studies: 1) Lamprea M. R., Cardenas F. P., Silveira R., Walsh T. J., Morato S. Effects of septal cholinergic lesion on rat exploratory behavior in an open-field. Braz. J. Med. Biol. Res. 2003, 36(2), 233-238; 2) Cassel J. S., Kelche C., Peterson G. M., Ballough G. P., Goepp I., Will B. Graft-induced behavioral recovery from subcallosal septohippocampal damage in rats depends on maturity stage of donor tissue. Neuroscience, 1991, 45(3), 571-586. Animals were tested in the open-field device 48 hours after the last injection of the test compound (at 14 days after surgery). Differences between experimental groups were assessed according to the Wilcoxon paired test. The data are expressed as the median values for the respective samples.

[2] = system: rats with hemorrhagic stroke; settings: 1 mg/kg
Experimental: The experiments were carried out on male white outbred rats weighing 220-250 g. […] The local cerebral hemorrhage (post-traumatic intracerebral hemorrhage) as a hemorrhagic stroke (HS) model was produced by the method of Makarenko (Makarenko A. N. et al., Zh. V. N. D. 2002, 52(6), 765-768).
To produce the stroke, rats were anesthetized with chloral hydrate (400 mg/kg i.m.) followed by craniotomy. The cerebral tissue in the region of internal capsule was destroyed followed (in 2-3 min) by the injection of blood (0.02-0.03 ml) taken from under the animal's tongue.
The neurological deficits, changes in the coordination of movements, muscle tone, orientation and exploratory behavior of the rats were recorded at 24 h after surgery.
The rats were monitored for 14 days after surgery. Animal's physical condition and behavioral features were recorded at 1, 3, 7 and 14 days.
The animals were distributed into 3 groups. Group 1 comprised sham-operated (SO) rats with craniotomy alone, group 2 comprised animals with HS, and group 3 comprised rats with HS treated with GK-2 (1 mg/kg at 3 h after surgery and every 48 hours thereafter for a total of 6 administrations). Group 1 and group 2 animals were treated with physiological saline in an equivalent volume.
Changes in animals' physical condition and behavior were evaluated by conventional methods. The neurological status was assessed by scoring neurological deficits according to MacGrow's stroke scoring system as modified by I. V. Gannushkina; by the muscle tone and coordination of movements monitoring methods; cognitive function was assessed by the passive avoidance conditioned reflex (PAR); and orientation and exploratory behavior by using the open field test. Also the drug's effect on the survival of rats was monitored.

## NCCCC[C@H](NC(=O)[C@H](CCC(=O)O)NC(=O)CCC(=O)O)C(=O)NCCCCCCNC(=O)[C@H](CCCCN)NC(=O)[C@H](CCC(=O)O)NC(=O)CCC(=O)O [GK-2, bis-(N-monosuccinyl-glutamyl-lysine) hexamethylenediamide]
[1]; 1st minute, 14 days after surgery, transection 11.5, sham 21
  horizontal motor activity in the open-field test (median): 12.5
[1]; 2nd minute, transection 12, sham 14
  horizontal motor activity in the open-field test (median): 11.5
[1]; 3rd minute, transection 19, sham 9.5
  horizontal motor activity in the open-field test (median): 15.5
[1]; 4th minute, transection 11.5, sham 9
  horizontal motor activity in the open-field test (median): 6.5*
[2]; Day 1, SO 0, HS 0
  Relative number of animals with paralysis of 1 to 4 limbs: 0%
[2]; Day 1, SO 0, HS 37.5
  Relative number of animals with paresis of 1 to 4 limbs: 20%
[2]; Day 1, SO 0, HS 50
  Relative number of animals with ring movements: 20%
[2]; Day 1, SO 30, HS 75
  Relative number of animals with limb weakness: 30%
[2]; Day 1, SO 40, HS 100
  Relative number of animals with floppiness & slowness of movements: 40%
[2]; Day 1, sham 3/10, stroke 6/8
  Number of rats failing to mount the horizontal bar, abs.: 4/10
  Number of rats missing the rotating rod (3 rpm) during 2 min, abs.: 4/10
[2]; Day 1, sham 5.0, stroke 1.25
  Vertical motor activity: 3.7 ± 0.9
[2]; Day 1, sham 10.3, stroke 1.9
  Exploration of openings: 3.6 ± 0.7
[2]; Day 1, sham 14.1, stroke 4.4
  Horizontal motor activity: 9.9 ± 2.1
[2]; Day 1, sham 30, stroke 75
  Number of rats failing to mount the horizontal bar, %: 40%
  Number of rats missing the rotating rod (3 rpm) during 2 min, %: 40%
[2]; Day 1, sham 30.3, stroke 7.5
  Cumulative index: 17.2 ± 3.5
[2]; Day 3, SO 0, HS 0
  Relative number of animals with paralysis of 1 to 4 limbs: 0%
[2]; Day 3, SO 0, HS 25
  Relative number of animals with paresis of 1 to 4 limbs: 0%
[2]; Day 3, SO 0, HS 37.5
  Relative number of animals with ring movements: 10%
[2]; Day 3, SO 30, HS 75
  Relative number of animals with limb weakness: 30%
[2]; Day 3, SO 30, HS 100
  Relative number of animals with floppiness & slowness of movements: 30%
[2]; Day 3, sham 2/10, stroke 3/8
  Number of rats failing to mount the horizontal bar, abs.: 2/10
[2]; Day 3, sham 2/10, stroke 5/8
  Number of rats missing the rotating rod (3 rpm) during 2 min, abs.: 3/10
[2]; Day 3, sham 4.0, stroke 3.1
  Exploration of openings: 3.7 ± 0.9
[2]; Day 3, sham 4.6, stroke 1.1
  Vertical motor activity: 2.4 ± 0.6
[2]; Day 3, sham 9.3, stroke 3.0
  Horizontal motor activity: 5.6 ± 1.4
[2]; Day 3, sham 17.9, stroke 7.2
  Cumulative index: 11.7 ± 2.4
[2]; Day 3, sham 20, stroke 37.5
  Number of rats failing to mount the horizontal bar, %: 20%
[2]; Day 3, sham 20, stroke 62.5
  Number of rats missing the rotating rod (3 rpm) during 2 min, %: 30%
[2]; Day 7, SO 0, HS 0
  Relative number of animals with paralysis of 1 to 4 limbs: 0%
  Relative number of animals with paresis of 1 to 4 limbs: 0%
  Relative number of animals with ring movements: 0%
[2]; Day 7, SO 0, HS 43
  Relative number of animals with floppiness & slowness of movements: 0%
  Relative number of animals with limb weakness: 0%
[2]; Day 7, sham 0, stroke 43
  Number of rats failing to mount the horizontal bar, %: 10%
  Number of rats missing the rotating rod (3 rpm) during 2 min, %: 20%
[2]; Day 7, sham 0/10, stroke 3/7
  Number of rats failing to mount the horizontal bar, abs.: 1/10
  Number of rats missing the rotating rod (3 rpm) during 2 min, abs.: 2/10
[2]; Day 7, sham 3.7, stroke 2.9
  Exploration of openings: 4.3 ± 0.9
[2]; Day 7, sham 4.1, stroke 1.0
  Vertical motor activity: 4.4 ± 0.7
[2]; Day 7, sham 8.6, stroke 3.7
  Horizontal motor activity: 8.1 ± 1.6
[2]; Day 7, sham 16.4, stroke 7.6
  Cumulative index: 16.8 ± 2.7
[2]; Day 14, SO 0, HS 0
  Relative number of animals with floppiness & slowness of movements: 0%
  Relative number of animals with limb weakness: 0%
  Relative number of animals with paralysis of 1 to 4 limbs: 0%
  Relative number of animals with paresis of 1 to 4 limbs: 0%
  Relative number of animals with ring movements: 0%
[2]; Day 14, sham 0, stroke 17
  Number of rats failing to mount the horizontal bar, %: 0%
  Number of rats missing the rotating rod (3 rpm) during 2 min, %: 0%
[2]; Day 14, sham 0/10, stroke 1/6
  Number of rats failing to mount the horizontal bar, abs.: 0/10
  Number of rats missing the rotating rod (3 rpm) during 2 min, abs.: 0/10
[2]; Day 14, sham 5.0, stroke 2.8
  Exploration of openings: 3.2 ± 0.9
[2]; Day 14, sham 5.1, stroke 1.0
  Vertical motor activity: 2.8 ± 0.9
[2]; Day 14, sham 9.1, stroke 1.8
  Horizontal motor activity: 7.5 ± 1.7
[2]; Day 14, sham 19.2, stroke 5.7
  Cumulative index: 13.5 ± 2.9
